Source: PubChem BioAssay AID687005 (Broad Institute, 2013)
Records with an inconclusive call do not appear. Activity calls are given as the source filed them.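 The calls were made as follows: active = Compounds that reduce signal, with fitted half-maximal dose at or under twice the top valid tested dose; inconclusive = Poor fit, or flat curve losing 30 to 70% of signal; inactive = Potency past limit, flat within 30%, or opposite direction.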

experiment: viability loss in HEK293T cells – cell-based, ATP luminescence, cherry-pick samples, cytotoxicity control, dose response (AID 687005); conditions: HEK293T viability, ATP luminescence (CellTiter-Glo), 48 h; at 23.5 µM (top of the series)

Row | Structure (SMILES) | activity change, negative = cytotoxicity
1 | C[C@H]1CN([C@@H](C)CO)C(=O)Cc2cc(NC(=O)C3CC3)ccc2O[C@@H]1CN(C)C(=O)Nc1cccc2ccccc12 | -3.99% (inactive)
2 | Cc1noc(C)c1NC(=O)N(C)C[C@@H]1Oc2ccc(NC(=O)NC(C)C)cc2CC(=O)N([C@@H](C)CO)C[C@@H]1C | -4.18% (inactive)
3 | COc1ccccc1-c1ccc([C@H]2[C@@H](C#N)N(C(=O)C3CC3)[C@@H]2CO)cc1 | 27.7% (inactive)
4 | COCCNC(=O)C[C@@H]1C[C@H]2c3cc(NC(=O)C4CCOCC4)ccc3O[C@H]2[C@H](CO)O1 | 25.9% (inactive)

same assay, conditions: HEK293T viability, ATP luminescence (CellTiter-Glo), 48 h; at 26 µM (top of the series)

Row | Structure (SMILES) | activity change, negative = cytotoxicity
5 | O=C(NC1CCCC1)N1CCCCN2[C@H](CO)[C@@H](c3ccc(-c4cncnc4)cc3)[C@H]2C1 | 41.2% (inactive)
6 | COCC(=O)N1C[C@H](C)[C@H](OC)CN(C)C(=O)c2ccc(NC(=O)NC(C)C)cc2OC[C@@H]1C | 37.2% (inactive)
7 | Cc1cccc(OCC(=O)NCc2ccccc2)c1 | -36.8% (inactive)
8 | NC(=O)NCC#Cc1ccc2c(c1)[C@]1(C(=O)N2)[C@H](C(N)=O)[C@H]2C(=O)O[C@H](c3ccccc3)[C@H](c3ccccc3)N2[C@@H]1c1ccccc1OCCO | -5.26% (inactive)
9 | Cc1ccc(S(=O)(=O)N(CC(=O)NCCSC2CCCCC2)c2ccccc2F)cc1 | 5.79% (inactive)
10 | CC(C)NC(=O)Nc1ccc2c(c1)C(=O)N([C@@H](C)CO)C[C@@H](C)[C@H](CN(C)Cc1ccncc1)OCCCC[C@@H](C)O2 | 75.6% (inactive)
11 | C[C@@H]1CN([C@H](C)CO)C(=O)c2cc(NS(=O)(=O)c3ccc(Cl)cc3)ccc2O[C@H]1CN(C)S(=O)(=O)c1ccc(F)cc1 | 38.8% (inactive)
12 | CCC(=O)N1[C@@H]2c3cccc(=O)n3C[C@H]1[C@H](CO)[C@H]2C(=O)NCc1ccccc1 | -16.7% (inactive)
13 | CNC(=O)C[C@@H]1CC[C@H]2[C@@H](COC[C@H](O)CN2C(=O)Nc2ccc3c(c2)OCO3)O1 | -5.64% (inactive)
14 | Cc1noc(C)c1S(=O)(=O)Nc1ccc2c(c1)C(=O)N([C@H](C)CO)C[C@H](C)[C@H](CN(C)Cc1ccncc1)O2 | 37.8% (inactive)
15 | CCCN1C[C@@H](C)[C@H](OC)CN(C)C(=O)c2ccc(NC(=O)c3cccc(F)c3)cc2OC[C@@H]1C | -7.98% (inactive)
16 | CO[C@H](CN(C)Cc1cc(F)ccc1F)[C@@H](C)CN([C@@H](C)CO)S(=O)(=O)c1ccc(F)cc1 | 14.8% (inactive)
17 | CC=Cc1ccc2n(c1=O)C[C@H]1[C@H](CO)[C@@H](C(=O)NCc3ccc4c(c3)OCO4)[C@@H]2N1C(=O)C1CC1 (mixture of isomers) | -15.5% (inactive)
18 | COc1ccc(-c2cnc3c(c2)C(=O)N([C@@H](C)CO)C[C@@H](C)[C@@H](CN(C)S(C)(=O)=O)O3)cc1 | 6.27% (inactive)
19 | C[C@@H]1CN([C@H](C)CO)C(=O)c2cccc(NC(=O)C3CC3)c2O[C@H]1CN(C)Cc1ccc(C(=O)O)cc1 | -12.7% (inactive)
20 | CCc1ccc(NC(=O)[C@H](C)NC(=O)C2CCN(C(=O)[C@@H](N)C(C)C)CC2)cc1 | -17.1% (inactive)
21 | COc1ccc(NC(=O)N(C)C[C@H]2OCCCC[C@@H](C)Oc3ccc(NC(=O)c4ccccc4)cc3C(=O)N([C@H](C)CO)C[C@H]2C)cc1 | -27.5% (inactive)
22 | CC(=O)N1[C@@H]2c3ccc(-c4ccccc4)c(=O)n3C[C@H]1[C@H](CO)[C@H]2C(=O)Nc1ccccc1 | 17.2% (inactive)
23 | O=C(C[C@H]1CC[C@@H](NC(=O)c2ccc3c(c2)OCO3)[C@@H](CO)O1)NCc1ccc(F)cc1 | -2.35% (inactive)
24 | Cc1ccc(NC(=O)C2CCC(=O)N2)cc1C (stereo not given) | -5.26% (inactive)

Row | Structure (SMILES) | activity change, negative = cytotoxicity
25 | CCN1C(=S)N[C@@H](c2cccc(F)c2)C(C(=O)OC)=C1C | 5.06% (inactive)
26 | CC(C)NC(=O)N(C)C[C@H]1OCCCC[C@@H](C)Oc2ccc(NC(=O)c3ccccc3)cc2C(=O)N([C@@H](C)CO)C[C@@H]1C | -10.9% (inactive)
27 | CCC(=O)N1[C@H](C(=O)Nc2ccccc2)[C@@H](CO)[C@@H]2Cn3c(ccc(-c4ccncc4)c3=O)[C@@H]21 | 24.7% (inactive)
28 | CCCC#Cc1cnc2c(c1)C(=O)N([C@@H](C)CO)C[C@H](C)[C@H](CN(C)C(=O)Nc1cccc(F)c1)O2 | 42% (inactive)
29 | O=C(c1cccnc1)N1C[C@H]2[C@@H](c3ccccc31)[C@@H](CO)N2C(=O)Nc1ccc(F)cc1 | -19.7% (inactive)
30 | S=C(NCc1ccccc1)NCC1COc2ccccc2O1 (stereo not given) | -15.9% (inactive)
31 | C[C@H]1CN([C@@H](C)CO)C(=O)c2cc(C#Cc3ccccn3)cnc2O[C@H]1CN(C)Cc1ccncc1 | 38.4% (inactive)
32 | C[C@H]1CN([C@@H](C)CO)S(=O)(=O)c2ccc(Br)cc2O[C@@H]1CN(C)C(=O)CCN1CCCCC1 | 38.4% (inactive)
33 | C[C@@H]1CN([C@@H](C)CO)C(=O)c2cccc(NC(=O)C3CC3)c2O[C@@H]1CN(C)C | -4.49% (inactive)
34 | CCC(C(=O)Nc1c(C)cc(C)cc1C)N1CCCCCC1 (stereo not given) | 18.8% (inactive)
35 | O=C(NCc1ccc(F)cc1)C1C2C=CC3(CN(Cc4cccnc4)C(=O)C13)O2 (stereo not given) | 9.79% (inactive)
36 | CC(C)NC(=O)N(C)C[C@H]1Oc2c(NC(=O)C3CCCCC3)cccc2C(=O)N([C@H](C)CO)C[C@H]1C | 5.22% (inactive)
37 | C[C@@H]1CCCCO[C@H](CN(C)Cc2ccncc2)[C@@H](C)CN([C@@H](C)CO)C(=O)c2cc(NC(=O)Nc3ccccc3)ccc2O1 | -7.38% (inactive)
38 | CC(C)CC#Cc1cnc2c(c1)C(=O)N([C@@H](C)CO)C[C@@H](C)[C@@H](CN(C)C(=O)c1cccc(F)c1)O2 | -19.3% (inactive)
39 | CO[C@H]1CN(C)C(=O)c2cc(NS(=O)(=O)CC(F)(F)F)ccc2OC[C@H](C)N(Cc2cccnc2)C[C@@H]1C | 20.5% (inactive)
40 | CC(=O)N1[C@@H]2CN(S(=O)(=O)c3ccccc3F)c3ccccc3[C@@H]2[C@@H]1CO | 5.73% (inactive)
41 | CO[C@@H]1CN(C)C(=O)c2cc(NC(=O)C3CC3)ccc2OC[C@H](C)N(C(=O)c2ccncc2)C[C@H]1C | -22.9% (inactive)
42 | CC(=O)NC[C@@H]1[C@@H](c2ccc(C3=CCCC3)cc2)[C@@H](CO)N1C(=O)NC(C)C | 6.26% (inactive)
43 | CC(=O)N[C@H]1CC[C@@H](CCNC(=O)C2CCC2)O[C@H]1CO | 1.44% (inactive)
44 | CC1CCCCN1C(=O)CSc1nc(C2CC2)nc2c1cnn2-c1ccccc1 (stereo not given) | 39.5% (inactive)

Row | Structure (SMILES) | activity change, negative = cytotoxicity
45 | O=C(COC(=O)CCC1CCCC1)Nc1nc2c(F)c(F)c(F)cc2s1 | -8.53% (inactive)
46 | C[C@@H]1CN([C@H](C)CO)C(=O)CCCn2cc(nn2)CO[C@@H]1CN(C)C(=O)CCCN(C)C | -5.89% (inactive)
47 | C[C@H](CO)N1C[C@H](C)[C@@H](CN(C)Cc2ccc(-c3ccccc3)cc2)Oc2ccc(NC(=O)Nc3ccc(C(F)(F)F)cc3)cc2C1=O | -3.25% (inactive)
48 | COc1cc(NC(=O)CN2CCN(S(=O)(=O)c3ccc(C(C)C)cc3)CC2)cc(OC)c1 | 2.05% (inactive)
49 | O=C(C[C@H]1CC[C@H](NC(=O)Nc2ccc(C(F)(F)F)cc2)[C@H](CO)O1)NCc1cccc(F)c1 | 11.3% (inactive)
50 | CCCNC(=O)C[C@@H]1CC[C@H]2[C@@H](COC[C@H](O)CN2Cc2ccccc2F)O1 | 22.6% (inactive)
51 | CC1=C(C(=O)OCc2ccccc2)C(c2ccccc2)NC(=O)N1 (stereo not given) | 13.2% (inactive)
52 | CC(C)NC(=O)Nc1ccc2c(c1)CC(=O)N([C@@H](C)CO)C[C@@H](C)[C@@H](CN(C)Cc1ccc(Oc3ccccc3)cc1)O2 | -58.4% (inactive)
53 | CNC(=O)C[C@@H]1CC[C@@H]2[C@H](COC[C@H](O)CN2S(=O)(=O)c2cccc(Cl)c2)O1 | 3.1% (inactive)
54 | COc1ccccc1NC(=O)N[C@@H]1CC[C@H](CCn2cc(-c3ccccc3OC)nn2)O[C@H]1CO | -11.8% (inactive)
55 | O=C(C[C@@H]1CC[C@H]2[C@@H](COC[C@@H](O)CN2C(=O)Nc2ccc(Cl)cc2)O1)NCCc1ccncc1 | -9.46% (inactive)
56 | CO[C@H]1CN(C)C(=O)c2cc(NC(=O)c3ccccc3F)ccc2OC[C@H](C)N(CC2CCOCC2)C[C@H]1C | 57% (inactive)
57 | COc1cccc(S(=O)(=O)Nc2ccc3c(c2)[C@H]2C[C@H](CC(=O)N(C)C)O[C@@H](CO)[C@H]2O3)c1 | -5.49% (inactive)
58 | COc1ccc(NC(=O)CSc2ncnc3c2cnn3CCc2ccccc2)cc1 | -33.3% (inactive)
59 | O=C([C@H]1[C@H](CO)[C@H]2Cn3c(cccc3=O)[C@@H]1N2Cc1cccc(Cl)c1)N1CCOCC1 | -20.6% (inactive)
60 | O=C(c1cccc(F)c1)N1CCCCN2[C@@H](CO)[C@H](c3ccc(-c4ccncc4)cc3)[C@@H]2C1 | 2.55% (inactive)
61 | O=C(C1CCOCC1)N1C[C@H]2[C@@H](c3ccccc31)[C@@H](CO)N2Cc1ccccc1Cl | 3.34% (inactive)
62 | COCC(=O)Nc1ccc2c(c1)OC[C@@H](C)N(C(=O)Cc1cccnc1)C[C@H](C)[C@@H](OC)CN(C)C2=O | -14.6% (inactive)

same assay, conditions: HEK293T viability, ATP luminescence (CellTiter-Glo), 48 h; at 35 µM (top of the series)

Row | Structure (SMILES) | activity change, negative = cytotoxicity
63 | O=C(NC(=S)NCC1COc2ccccc2O1)c1ccc(Cl)cc1 (stereo not given) | -9.32% (inactive)

same assay, conditions: HEK293T viability, ATP luminescence (CellTiter-Glo), 48 h; at 42 µM (top of the series)

Row | Structure (SMILES) | activity change, negative = cytotoxicity
64 | Cc1ccc(NC(=O)C2(C)CCCN2CC(C)C)cc1C (stereo not given) | -2.43% (inactive)

same assay, conditions: HEK293T viability, ATP luminescence (CellTiter-Glo), 48 h; at 50 µM (top of the series)

Row | Structure (SMILES) | activity change, negative = cytotoxicity
65 | Cc1ccc(OCC(=O)NCc2ccccc2)cc1 | 29% (inactive)
